For ten compounds, IC50 and melting point results are on record in patent US8039500B2, “Fused heterocyclic compounds” (Takeda Pharmaceutical Company Limited, priority 2006, dated 2011).

Molecules are shown by their SMILES.

In one data set the target is T1, human CRF receptor (Homo sapiens, UniProt P34998).
T1 construct: expressed in transfected cells; host or cells: CHO cells (membrane fraction)
T1 sequence (P34998 24-415): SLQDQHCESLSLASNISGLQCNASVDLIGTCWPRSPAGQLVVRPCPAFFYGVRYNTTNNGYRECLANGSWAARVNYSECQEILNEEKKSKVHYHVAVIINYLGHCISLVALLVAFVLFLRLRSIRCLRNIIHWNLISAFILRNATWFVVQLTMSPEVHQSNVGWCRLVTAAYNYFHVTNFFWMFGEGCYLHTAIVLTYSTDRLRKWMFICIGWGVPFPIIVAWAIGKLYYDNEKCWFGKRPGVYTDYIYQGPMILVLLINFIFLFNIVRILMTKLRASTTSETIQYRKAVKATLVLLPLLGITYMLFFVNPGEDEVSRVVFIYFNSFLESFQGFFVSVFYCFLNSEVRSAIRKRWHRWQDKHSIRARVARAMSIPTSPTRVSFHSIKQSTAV
Description: CRF binding inhibitory rate / receptor binding experiment with 125I-CRF. The following applies: human CRF receptor expressing CHO cellular membrane fraction, 50 pM 125I-CRF (ovine CRF), room temperature 1.5 hr, 0.05 nM to 10 μM of compound; read-out: IC50 values (CRF binding inhibition). On the procedure:
Measurement of CRF Binding Inhibitory Rate
A receptor binding experiment was carried out using a human CRF receptor expressing CHO cellular membrane fraction and ovine CRF, [^125I]-tyr^0(^125I-CRF). 1000 nM of a test compound was incubated with 1 μg of human CRF receptor expressing CHO cellular membrane fraction and 50 pM of ^125I-CRF in a binding assay buffer (50 mM Tris-HCl, 5 mM EDTA, 10 mM MgCl2, 0.05% CHAPS, 0.1% BSA, 0.5 mM PMSF, 0.1 μg/mL pepstatin, 20 μg/mL leupeptin, pH 7.5). In addition, for measuring nonspecific binding (NSB), 0.1 μM unlabelled human Urocortin was incubated with 5 μg of human CRF receptor expressing CHO cellular membrane fraction and 50 pM of ^125I-CRF in a binding assay buffer. After a binding reaction was carried out at room temperature for 1.5 hr, the membrane was entrapped on a glass filter (UniFilter plate GF-C/Perkin Elmer) by suction filtration using a cell harvester (Perkin Elmer), and washed with ice-cooled 50 mM Tris-HCl (pH 7.5). After drying the glass filter, a liquid scintillation cocktail (Microscinti 0, Perkin Elmer) was added, and the radioactivity of ^125I-CRF remaining on a glass filter was measured using Topcount (Perkin Elmer).
(TB-SB)/(TB-NSB)×100 (SB: radioactivity when a compound is added, TB: maximum binding radioactivity, NSB: nonspecific binding radioactivity) were calculated to obtain binding inhibitory rates under the range of the presence from 0.05 nM to 10 μM of each compound. The IC50 values were calculated by using GraphPad Prism software.
For orientation: IC50 means the concentration needed to halve the response being measured. As to `CCN(CC)c1cccc2nc(Cc3c(C)cc(C)cc3C)n(C)c12` [Example 1, N,N-Diethyl-2-(mesitylmethyl)-1-methyl-1H-benzimidazol-7-amine], the IC50 is less than 1000 nM.

As to `CCC(c1cccc2nc(Cc3c(Cl)cc(C(F)(F)F)cc3Cl)n(C)c12)C(C)O` (stereo not drawn) [Example 9, 3-{2-[2,6-Dichloro-4-(trifluoromethyl)benzyl]-1-methyl-1H-benzimidazol-7-yl}pentan-2-ol], the IC50 was less than 1000 nM.

Consider `CC=C(CC)c1cccc2nc(Cc3c(Cl)cc(C(F)(F)F)cc3Cl)n(C)c12` [Example 7, 2-[2,6-Dichloro-4-(trifluoromethyl)benzyl]-7-[1-ethylprop-1-en-1-yl]-1-methyl-1H-benzimidazole], for which the IC50 was less than 1000 nM.

Take `CC=C(CC)c1cccc2nc(Cc3c(C)cc(C)cc3C)n(C)c12` (mixture of isomers) [Example 4, 7-[1-Ethylprop-1-en-1-yl]-2-(mesitylmethyl)-1-methyl-1H-benzimidazole]: the concentration for half-maximal inhibition (IC50) is less than 1000 nM.

As to `CCC(O)(CC)c1cccc2nc(Cc3c(Cl)cc(C(F)(F)F)cc3Cl)n(C)c12` [Example 6, 3-{2-[2,6-Dichloro-4-(trifluoromethyl)benzyl]-1-methyl-1H-benzimidazol-7-yl}pentan-3-ol], the IC50 is less than 1000 nM.

Take `CCN(CC)c1cccc2nc(Cc3c(Cl)cc(C(F)(F)F)cc3Cl)n(C)c12` [Example 2, 2-[2,6-Dichloro-4-(trifluoromethyl)benzyl]-N,N-diethyl-1-methyl-1H-benzimidazol-7-amine]: the IC50 is less than 1000 nM.

On to `CCC(CC)c1cccc2nc(C(O)c3c(C)cc(C)cc3C)n(C)c12` (stereo not drawn) [Example 10, [7-(1-Ethylpropyl)-1-methyl-1H-benzimidazol-2-yl](mesityl)methanol], for which the IC50 is less than 1000 nM.

For the compound `CCC(O)(CC)c1cccc2nc(Cc3c(C)cc(C)cc3C)n(C)c12` [Example 3, 3-[2-(Mesitylmethyl)-1-methyl-1H-benzimidazol-7-yl]pentan-3-ol], the IC50 is less than 1000 nM.

For the compound `CCC(CC)c1cccc2nc(Cc3c(C)cc(C)cc3C)n(C)c12` [Example 5, 7-(1-Ethylpropyl)-2-(mesitylmethyl)-1-methyl-1H-benzimidazole], the IC50 was less than 1000 nM.

Consider `CCC(c1cccc2nc(Cc3c(Cl)cc(C(F)(F)F)cc3Cl)n(C)c12)C(C)OC(C)=O` (mixture of isomers) [Example 8, 2-{2-[2,6-Dichloro-4-(trifluoromethyl)benzyl]-1-methyl-1H-benzimidazol-7-yl}-1-methylbutyl acetate], for which the IC50 was less than 1000 nM.

Test system in another data set: not given
Experiment: not given
Details: not given
By melting point is commonly meant the temperature, or range, at which the solid turns liquid. With `CCN(CC)c1cccc2nc(Cc3c(Cl)cc(C(F)(F)F)cc3Cl)n(C)c12` [Example 2, 2-[2,6-Dichloro-4-(trifluoromethyl)benzyl]-N,N-diethyl-1-methyl-1H-benzimidazol-7-amine], the melting point lay in the range of 150 to 151 °C.

`CCC(CC)c1cccc2nc(C(O)c3c(C)cc(C)cc3C)n(C)c12` (stereo not drawn) [Example 10, [7-(1-Ethylpropyl)-1-methyl-1H-benzimidazol-2-yl](mesityl)methanol] returned a melting point of 132 to 134 °C.
